The target in this test is O-GlcNAcase (OGA) (Mus musculus, UniProt Q9EQQ9). Nature of the test: biochemical.
O-GlcNAcase (OGA), sequence (Q9EQQ9 whole entry): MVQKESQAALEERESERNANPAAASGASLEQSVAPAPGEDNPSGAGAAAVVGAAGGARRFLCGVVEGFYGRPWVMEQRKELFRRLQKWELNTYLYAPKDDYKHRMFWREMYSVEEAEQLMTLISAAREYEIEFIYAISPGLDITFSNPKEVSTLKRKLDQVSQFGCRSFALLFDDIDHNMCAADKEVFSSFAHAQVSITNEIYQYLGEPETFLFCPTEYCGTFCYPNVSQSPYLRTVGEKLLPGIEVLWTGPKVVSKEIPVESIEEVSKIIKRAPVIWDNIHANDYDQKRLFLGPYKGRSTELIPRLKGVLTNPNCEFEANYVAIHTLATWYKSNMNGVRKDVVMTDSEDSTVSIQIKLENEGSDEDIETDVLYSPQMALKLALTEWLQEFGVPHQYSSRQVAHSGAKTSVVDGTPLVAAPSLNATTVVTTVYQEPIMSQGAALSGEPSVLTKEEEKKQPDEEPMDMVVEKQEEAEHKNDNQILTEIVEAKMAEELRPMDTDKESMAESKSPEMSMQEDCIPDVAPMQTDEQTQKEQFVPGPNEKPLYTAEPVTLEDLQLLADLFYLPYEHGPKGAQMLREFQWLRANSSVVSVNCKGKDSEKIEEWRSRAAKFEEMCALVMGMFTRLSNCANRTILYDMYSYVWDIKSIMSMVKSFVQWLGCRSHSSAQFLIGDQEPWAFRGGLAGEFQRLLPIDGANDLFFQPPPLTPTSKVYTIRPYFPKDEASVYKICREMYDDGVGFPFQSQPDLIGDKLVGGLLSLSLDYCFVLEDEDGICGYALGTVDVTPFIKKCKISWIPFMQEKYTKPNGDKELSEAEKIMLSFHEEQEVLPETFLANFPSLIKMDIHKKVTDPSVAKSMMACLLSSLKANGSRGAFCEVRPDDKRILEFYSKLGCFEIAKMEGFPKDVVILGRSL

One may read the Kd as the concentration at which binding is half-saturated. `CCNC1=N[C@@H]2[C@@H](O)[C@H](O)[C@@H](CO)O[C@@H]2S1` [Thiamet G] returned an equilibrium dissociation constant (Kd) of 1.7 nM.
